Reference: patent US20130023504A1, “Modulation of Prostaglandin/Cyclooxygenase Metabolic Pathways” (HUNTER-FLEMING LIMITED, priority 2006, published 2013)
Values joined by “and” are separate entries in the source; they are usually repeats but may differ in a detail not shown here. Equal entries are not always repeated.

Legend:
[1] = test system: control rats without colitis; assay: Colonic prostaglandin levels and COX-2/PG synthase mRNA in control rats without colitis; format: in vivo, rat
Method: After a 7-day adaptation period, animals were divided into two control groups (sham-control and 7β-hydroxy-EPIA-treated control group and two colitis groups (colitis and 7β-hydroxy-EPIA-treated colitis). 7β-Hydroxy-EPIA (0.01, 0.1, and 1 mg/kg body weight dissolved in DMSO) or DMSO alone (vehicle) was administered i.p. once a day for 7 days, from day 0 to day 7. Colitis was induced from day 7 to 14 by addition of DSS (molecular weight 36-50 kDa; MP Biomedicals, France) to drinking water. The two control groups received tap water only.
Commercially available EIA kits were used for the determination of PGE2 levels (Oxford Biomedical Research, UK) and 15d-PGJ2 levels (Assay designs, Euromedex, France) in colonic supernatants obtained from fresh homogenates. Measurement of PGD2 levels was obtained using the prostaglandin D2-MOX EIA kit (Cayman Chemical, Euromedex). In this case, and prior to assay, the fresh samples were immediately treated with the MOX-HCl reagent which converted PGD2 into PGD2-MOX, thus preventing any further chemical degradation.
Total RNA from fresh colonic samples (300 mg) was extracted using Trizol Reagent (Invitrogen, Cergy-Pontoise, France). Poly(A) RNA was purified from total RNA with MicroPoly(A)Purist kit (Ambion, Huntingdon, UK). cDNA was synthesized using the Superscript first strand synthesis system kit (Invitrogen). Real-time PCR was performed using mixtures (25 μL) containing 2.5× RealMaster Mix/20×SYBR solution (11.25 μL) (Eppendorf, Le Pecq, France) and 300 nM forward and reverse primers. Reactions were run on a RealPlex ep gradient S mastercycler (Eppendorf). The cycling conditions were at 95° C. for 10 minutes and 40 cycles at 95° C., 55° C. and 68° C. for 15 seconds, 30 seconds and 30 seconds, respectively. Each assay included a standard curve of four serial dilution points of control cDNA. Oligonucleotide primers were synthesized by Genecust/Distribio (Evry, France). The specificity of the amplified product was monitored by examination of the product melting curve and confirmed by analysis on agarose gel electrophoresis. The levels of mRNA were expressed relative to that of the DMSO control, after normalization to HPRT1.

rat sensory neurones = assay: Cisplatin-induced loss of neurite density in primary dorsal root ganglia sensory neurones (anti β-Tubulin); format: cell-based; conditions: for % Control without cisplatin (neurite length) / Mean neurite length: cisplatin 3 μg/ml
Method: Primary cultures of dissociated dorsal root ganglia sensory neurones were incubated with 3 μg/ml cisplatin, with and without 7β-OH EPIA for 48 hours and 72 hours and the following parameters were evaluated:
neurite network density stained with an anti 8-Tubulin antibody
Rat sensory neurones were prepared according to the method described by Hall et al 1997 [Hall et al. (J. Neurosci. 1997 Apr. 15; 17(8); 2775-84]. Briefly, a female rat (15 days gestation) was killed by cervical dislocation (Rats Wistar; Janvier, Le Genest-St-lsle, France) and the foetuses removed from the uterus. Their spinal cords with the dorsal root ganglia (DRG) were removed and placed in ice-cold medium of Leibovitz (L15, Fisher 11415-049) containing Penicillin 50 UI/ml-Streptomycin 50 μg/ml (PS, 1%) and bovine serum albuminutes (BSA 1%, Sigma A6003). The DRG were recovered and dissociated by trypsinisation for 20 minutes at 37° C. (trypsin EDTA 10×, 10%, Fisher 15400054) diluted in PBS without calcium and magnesium (Fisher 2007-03). The reaction was stopped by addition of Dulbecco modified Eagle medium (DMEM, Fisher 21969-035) containing DNase I grade II (0.1 mg/ml Roche diagnostic 104159) and foetal bovine serum (FBS 10%, Fisher 10270-098). The cell suspension was triturated with a 10 ml pipette and centrifuged at 350×g for 10 minutes at room temperature. The pellet of dissociated cells was then resuspended in defined culture medium.
Viable cells were counted in a Neubauer cytometer using the trypan blue exclusion test (Sigma) and seeded at a density of 30 000 cells/well in 96 well-plates (Nunc). Wells were pre-coated with poly-L-lysine (10 μg/ml, Sigma P2636) in ultra pure sterile water (Merck Eurolab 60759.01).
Cells were allowed to adhere for 2 h and maintained in a humidified incubator at 37° C. in 5% CO2/95% air atmosphere.
After 5 days of culture, the culture medium was changed into a defined culture medium following the different conditions described below:
Test compound 7β-OH EPIA (1 nM, 10 nM and 100 nM)+cisplatin (3 μg/ml)
Reference compound NGF (10 ng/ml)+cisplatin (3 μg/ml)
Six wells per condition were carried out to assess neuronal survival. After 48 hours and 72 hours of incubation, the neuronal cells were fixed for 5 minutes in an ethanol/acetic acid solution (95%/5%) at −20° C. and rinsed 3 times in PBS.
Cell bodies of sensory neurones were labelled by monoclonal anti MAP-2 antibody (Sigma M4403) and the neurite of sensory neurones were labelled by monoclonal β-Tubulin antibody (Sigma T8660). These antibodies were diluted at 1:400 in incubation solution (PBS with 5% of FCS and 0.1% of saponin, Sigma S-7900). These antibodies specifically label neurone cell bodies and neuritis, respectively.
After 2 hours of incubation, the cells were washed in PBS and incubated with Alexa Fluor 488 goat anti mouse IgG (Molecular Probes A11001) diluted at 1:300 in incubation solution to reveal the MAP-2 and the β-Tubulin antibodies. Cell nuclei were stained with a fluorescent marker (Hoechst staining solution, SIGMA H6024, 1 μg/ml in incubation solution during 1 hour).
For each condition, 2 pictures per well (12 pictures per condition) were taken using In Cell Analyzer 1000 (Amersham Biosciences) controlled by the computer software In Cell Analyzer 1000 3.2. For the MAP-2 labelling, the magnification was ×10, for the β-Tubulin labelling, the magnification was ×20. For each labelling, all the images were taken in the same conditions.
Analysis of the number of cell bodies labelled with anti-MAP-2 antibodies, and total length of neurites labelled with anti β-Tubulin antibodies, were carried out using In Cell Analyzer 1000 3.2.Workstation software. The results were expressed in percentage compared to the vehicle. The comparisons of each group were carried out using the unpaired T test.

CC12CCC3C(C1CCC2=O)[C@@H](O)C[C@H]1C[C@@H](O)CCC31C (stereo partly drawn) [Compound 7β-OH-EPIA, 7β-hydroxy-EPIAndrosterone]
increase of colonic 15d-PGJ2 above basal levels ([1]; 0.1 mg/kg day 0 to day 7, day 2): 51 fold
increase in COX-2 mRNA levels ([1]; 0.1 mg/kg, at 15 h): 1.5 fold
mPGES-1 mRNA expression ([1]; 0.1 mg/kg, between 6 h and 15 h): increased transiently
H-PGDS mRNA synthesis ([1]; 0.1 mg/kg, course of the experiment): remained unchanged
PGE2 and PGD2 colonic tissue levels ([1]; control rats without colitis): did not alter
reduction of cisplatin-induced toxicity (neurite loss) (rat sensory neurones; 1 nM, 48 hours): 90.7%
reduction of cisplatin-induced toxicity (neurite loss) (rat sensory neurones; 1 nM, 72 hours): 70.8%
% Control without cisplatin (neurite length) (rat sensory neurones; 1 nM, 48 hours): 99%
Mean neurite length (rat sensory neurones; 1 nM, 48 hours): 5378 μm and 5377.89 μm
% Control without cisplatin (neurite length) (rat sensory neurones; 1 nM, 72 hours): 93%
Mean neurite length (rat sensory neurones; 1 nM, 72 hours): 4948 μm and 4947.99 μm
reduction of cisplatin-induced toxicity (neurite loss) (rat sensory neurones; 10 nM, 48 hours): 101%
% Control without cisplatin (neurite length) (rat sensory neurones; 10 nM, 48 hours): 102%
Mean neurite length (rat sensory neurones; 10 nM, 48 hours): 5549 μm and 5549.41 μm
% Control without cisplatin (neurite length) (rat sensory neurones; 10 nM, 72 hours): 80%
Mean neurite length (rat sensory neurones; 10 nM, 72 hours): 4275.04 μm
% Control without cisplatin (neurite length) (rat sensory neurones; 100 nM, 48 hours): 81%
Mean neurite length (rat sensory neurones; 100 nM, 48 hours): 4442.51 μm
% Control without cisplatin (neurite length) (rat sensory neurones; 100 nM, 72 hours): 77%
Mean neurite length (rat sensory neurones; 100 nM, 72 hours): 4080.89 μm
